Tests used:
[1] = molecular target: Beta-3 adrenergic receptor (Homo sapiens, UniProt P13945); test: DRUGMATRIX: Adrenergic beta3 radioligand binding (ligand: [125I] Cyanopindolol); assay type: cell membranes, HEK293, Membrane; details: hek293; Not Active = under 50% inhibition at 10 µM
[2] = molecular target: 5-hydroxytryptamine receptor 4 (Cavia porcellus, UniProt O70528); assay type: cell membranes, Dunkin-Hartley, Striatum, Membrane; note: in other assays of this panel Not Active means under 50% inhibition at 10 µM
5-hydroxytryptamine receptor 4, sequence (O70528 whole entry): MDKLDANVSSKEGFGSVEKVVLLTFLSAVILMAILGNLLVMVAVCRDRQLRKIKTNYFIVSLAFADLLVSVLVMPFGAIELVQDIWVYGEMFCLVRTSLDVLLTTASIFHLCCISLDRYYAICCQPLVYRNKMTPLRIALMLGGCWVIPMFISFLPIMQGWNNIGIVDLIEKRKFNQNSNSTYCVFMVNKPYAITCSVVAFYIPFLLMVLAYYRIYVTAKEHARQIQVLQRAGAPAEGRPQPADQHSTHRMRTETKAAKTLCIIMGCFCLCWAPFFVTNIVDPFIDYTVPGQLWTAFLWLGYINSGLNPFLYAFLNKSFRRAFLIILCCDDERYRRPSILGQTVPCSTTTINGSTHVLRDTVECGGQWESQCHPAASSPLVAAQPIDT

Melanocortin receptor 4 = Melanocortin receptor 4 (Homo sapiens, UniProt P32245); assay type: cell membranes, HEK293, Membrane; details: hek293; note: in other assays of this panel Not Active means under 50% inhibition at 10 µM
Melanocortin receptor 4, sequence (P32245 whole entry): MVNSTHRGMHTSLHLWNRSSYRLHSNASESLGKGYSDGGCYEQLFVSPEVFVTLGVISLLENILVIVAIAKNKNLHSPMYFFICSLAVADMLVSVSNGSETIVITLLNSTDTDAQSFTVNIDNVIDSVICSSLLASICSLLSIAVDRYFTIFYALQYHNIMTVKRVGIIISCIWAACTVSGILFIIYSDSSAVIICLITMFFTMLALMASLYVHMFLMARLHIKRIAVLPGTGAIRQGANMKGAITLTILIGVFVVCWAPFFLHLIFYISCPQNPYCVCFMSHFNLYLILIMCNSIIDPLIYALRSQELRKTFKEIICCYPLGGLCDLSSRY

[3] = molecular target: T1, Muscarinic acetylcholine receptor M2 (Homo sapiens, UniProt P08172); assay type: cell membranes, CHO-K1, Membrane; note: in other assays of this panel Not Active means under 50% inhibition at 10 µM
T1 sequence (P08172 whole entry): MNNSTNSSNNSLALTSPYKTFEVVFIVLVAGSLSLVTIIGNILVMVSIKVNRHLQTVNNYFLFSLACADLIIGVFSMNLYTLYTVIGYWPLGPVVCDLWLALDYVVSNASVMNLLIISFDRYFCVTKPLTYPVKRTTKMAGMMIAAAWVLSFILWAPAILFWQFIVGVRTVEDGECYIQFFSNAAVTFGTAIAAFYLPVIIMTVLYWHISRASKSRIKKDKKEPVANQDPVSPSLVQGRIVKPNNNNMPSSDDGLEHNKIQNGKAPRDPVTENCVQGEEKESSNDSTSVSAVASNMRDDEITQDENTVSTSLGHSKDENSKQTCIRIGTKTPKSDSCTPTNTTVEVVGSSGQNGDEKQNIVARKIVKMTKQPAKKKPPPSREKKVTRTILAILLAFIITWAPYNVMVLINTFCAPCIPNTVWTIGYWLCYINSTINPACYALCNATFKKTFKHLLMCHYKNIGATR

[4] = molecular target: Voltage-gated inwardly rectifying potassium channel KCNH2 (Homo sapiens, UniProt Q12809); details: hek293; note: in other assays of this panel Not Active means under 50% inhibition at 10 µM
Voltage-gated inwardly rectifying potassium channel KCNH2, sequence (Q12809 whole entry): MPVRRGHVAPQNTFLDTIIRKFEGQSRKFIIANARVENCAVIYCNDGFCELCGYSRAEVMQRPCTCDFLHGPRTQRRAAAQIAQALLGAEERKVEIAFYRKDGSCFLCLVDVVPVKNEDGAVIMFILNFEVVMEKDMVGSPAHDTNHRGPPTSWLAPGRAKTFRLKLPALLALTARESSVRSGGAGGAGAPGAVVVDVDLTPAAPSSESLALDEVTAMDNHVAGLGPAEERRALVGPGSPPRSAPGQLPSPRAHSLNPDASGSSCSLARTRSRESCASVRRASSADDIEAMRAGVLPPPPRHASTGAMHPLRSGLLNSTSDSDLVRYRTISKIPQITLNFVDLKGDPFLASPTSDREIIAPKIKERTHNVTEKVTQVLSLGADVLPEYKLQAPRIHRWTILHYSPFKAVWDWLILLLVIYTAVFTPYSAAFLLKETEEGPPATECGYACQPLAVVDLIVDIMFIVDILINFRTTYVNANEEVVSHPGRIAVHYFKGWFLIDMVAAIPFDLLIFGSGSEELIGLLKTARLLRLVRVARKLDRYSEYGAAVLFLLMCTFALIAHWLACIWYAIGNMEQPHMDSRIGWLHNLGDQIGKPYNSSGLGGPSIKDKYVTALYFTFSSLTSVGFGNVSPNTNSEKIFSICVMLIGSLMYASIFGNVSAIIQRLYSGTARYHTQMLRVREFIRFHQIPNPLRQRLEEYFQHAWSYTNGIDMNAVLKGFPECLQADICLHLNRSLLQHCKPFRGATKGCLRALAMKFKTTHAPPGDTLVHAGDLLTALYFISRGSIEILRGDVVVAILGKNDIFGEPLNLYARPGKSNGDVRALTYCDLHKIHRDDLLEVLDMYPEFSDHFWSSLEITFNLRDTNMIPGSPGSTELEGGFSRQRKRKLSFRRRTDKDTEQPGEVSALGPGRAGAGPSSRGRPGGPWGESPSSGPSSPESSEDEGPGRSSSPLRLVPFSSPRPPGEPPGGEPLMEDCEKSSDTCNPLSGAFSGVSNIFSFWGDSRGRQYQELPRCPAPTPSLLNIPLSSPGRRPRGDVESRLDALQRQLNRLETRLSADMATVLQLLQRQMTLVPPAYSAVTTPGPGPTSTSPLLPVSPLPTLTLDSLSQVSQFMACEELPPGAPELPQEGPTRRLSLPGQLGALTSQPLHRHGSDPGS

Beta-3 adrenergic receptor, sequence (P13945 whole entry): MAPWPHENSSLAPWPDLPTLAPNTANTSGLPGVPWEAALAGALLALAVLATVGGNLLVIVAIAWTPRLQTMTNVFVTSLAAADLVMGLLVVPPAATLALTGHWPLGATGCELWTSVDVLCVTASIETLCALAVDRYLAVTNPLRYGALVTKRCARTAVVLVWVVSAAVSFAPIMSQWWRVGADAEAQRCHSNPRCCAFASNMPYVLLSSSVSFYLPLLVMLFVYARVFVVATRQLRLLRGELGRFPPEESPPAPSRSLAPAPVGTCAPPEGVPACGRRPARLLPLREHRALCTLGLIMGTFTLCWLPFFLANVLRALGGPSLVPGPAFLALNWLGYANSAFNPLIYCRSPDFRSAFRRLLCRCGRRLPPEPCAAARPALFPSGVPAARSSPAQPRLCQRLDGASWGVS

For `COc1ccc(C(=O)N2CCCC2=O)cc1`, the IC50 [1] was “Not Active”, the IC50 [2] was “Not Active” and the IC50 (Melanocortin receptor 4) was “Not Active”. The IC50 ([3]; cho-k1) was “Not Active”, the IC50 [4] was “Not Active” and the Ki [4] was “Not Active”.

With `C[C@@H]1C[C@H]2[C@@H]3CCC4=CC(=O)C=C[C@]4(C)[C@@]3(F)[C@@H](O)C[C@]2(C)[C@@]1(O)C(=O)CO` [DEXAMETHASONE] the IC50 [1] was “Not Active”, the IC50 [2] was “Not Active” and the IC50 (Melanocortin receptor 4) was “Not Active”. The IC50 ([3]; cho-k1) was “Not Active”, the IC50 [4] was “Not Active” and the Ki [4] was “Not Active”.

In the case of `O=C(c1ccccc1C(F)(F)F)N1CCC(Cc2ccccc2)CC1`, the IC50 [1] is reported as “Not Active”, the IC50 [2] is reported as “Not Active” and the IC50 (Melanocortin receptor 4) is reported as “Not Active”. For the same compound, the IC50 ([3]; cho-k1) was “Not Active”, the IC50 [4] was “Not Active” and the Ki [4] was “Not Active”.

In the case of `CCC1(C)CC(=O)NC1=O` (configuration not stated) [ETHOSUXIMIDE], the IC50 [1] is reported as “Not Active”, the IC50 [2] is reported as “Not Active” and the IC50 (Melanocortin receptor 4) is reported as “Not Active”. For the same compound, the IC50 ([3]; cho-k1) was “Not Active”, the IC50 [4] was “Not Active” and the Ki [4] was “Not Active”.

With GRAMICIDIN the IC50 [1] was “Not Active”, the Ki [1] was “Not Active” and the IC50 [2] was “Not Active”. For the same compound, the Ki [2] was “Not Active”, the IC50 (Melanocortin receptor 4; read-out: IC50) was 3310 nM and the Ki (Melanocortin receptor 4; read-out: Ki) was 3190 nM. For the same compound, the IC50 ([3]; cho-k1) was “Not Active”, the Ki ([3]; cho-k1) was “Not Active” and the IC50 [4] was “Not Active”. The Ki [4] was “Not Active”.

`OC(CCCN1CCCCC1)(c1ccccc1)c1ccccc1` [DIPHENIDOL] was tested, and the IC50 [1] was “Not Active”, the IC50 [2] was “Not Active” and the IC50 (Melanocortin receptor 4) was “Not Active”. The IC50 ([3]; read-out: IC50) was 770 nM, the Ki ([3]; read-out: Ki) was 274 nM and the IC50 [4] was “Not Active”. For the same compound, the Ki [4] was “Not Active”.

In the case of `CCC(=O)O[C@]1(C(=O)CCl)[C@@H](C)C[C@H]2[C@@H]3CCC4=CC(=O)C=C[C@]4(C)[C@@]3(F)[C@@H](O)C[C@@]21C` [CLOBETASOL PROPIONATE], the IC50 [1] is reported as “Not Active”, the IC50 [2] is reported as “Not Active” and the IC50 (Melanocortin receptor 4) is reported as “Not Active”. The IC50 ([3]; cho-k1) was “Not Active”, the IC50 [4] was “Not Active” and the Ki [4] was “Not Active”.

`Cc1c(OCC(F)(F)F)ccnc1C[S+]([O-])c1nc2ccccc2[nH]1` (configuration not stated) [LANSOPRAZOLE] was tested, and the IC50 [1] was “Not Active”, the IC50 [2] was “Not Active” and the IC50 (Melanocortin receptor 4) was “Not Active”. The IC50 ([3]; cho-k1) was “Not Active”, the IC50 [4] was “Not Active” and the Ki [4] was “Not Active”.

`CCCOc1ccc(C(=O)OCCN(CC)CC)cc1N` [PROPARACAINE] was tested, and the IC50 [1] was “Not Active”, the IC50 [2] was “Not Active” and the IC50 (Melanocortin receptor 4) was “Not Active”. The IC50 ([3]; cho-k1) was “Not Active”, the IC50 [4] was “Not Active” and the Ki [4] was “Not Active”.

With `CC(=O)[C@H]1[C@H](C#N)C[C@H]2[C@@H]3CC=C4C[C@@H](O)CC[C@]4(C)[C@H]3CC[C@@]21C` [PREGNENOLONE CARBONITRILE] the IC50 [1] was “Not Active”, the IC50 [2] was “Not Active” and the IC50 (Melanocortin receptor 4) was “Not Active”. For the same compound, the IC50 ([3]; cho-k1) was “Not Active”, the IC50 [4] was “Not Active” and the Ki [4] was “Not Active”.

`CN(C)CC[C@@H](c1ccc(Cl)cc1)c1ccccn1` [DEXCHLORPHENIRAMINE] was tested, and the IC50 [1] was “Not Active”, the IC50 [2] was “Not Active” and the IC50 (Melanocortin receptor 4) was “Not Active”. For the same compound, the IC50 ([3]; read-out: IC50) was 6990 nM, the Ki ([3]; read-out: Ki) was 2490 nM and the IC50 [4] was “Not Active”. The Ki [4] was “Not Active”.

`CC[C@H](C)[C@H]1O[C@]2(C=C[C@@H]1C)C[C@@H]1C[C@@H](C/C=C(\C)[C@@H](O[C@H]3C[C@H](OC)[C@@H](O[C@H]4C[C@H](OC)[C@@H](O)[C@H](C)O4)[C@H](C)O3)[C@@H](C)/C=C/C=C3\CO[C@@H]4[C@H](O)C(C)=C[C@@H](C(=O)O1)[C@]34O)O2.CO[C@H]1C[C@H](O[C@H]2[C@H](C)O[C@@H](O[C@@H]3/C(C)=C/C[C@@H]4C[C@@H](C[C@]5(C=C[C@H](C)[C@@H](C(C)C)O5)O4)OC(=O)[C@@H]4C=C(C)[C@@H](O)[C@H]5OC/C(=C\C=C\[C@@H]3C)[C@]54O)C[C@@H]2OC)O[C@@H](C)[C@@H]1O` [ABAMECTIN] was tested, and the IC50 [1] was “Not Active”, the IC50 [2] was “Not Active” and the IC50 (Melanocortin receptor 4) was “Not Active”. The IC50 ([3]; cho-k1) was “Not Active”, the IC50 [4] was “Not Active” and the Ki [4] was “Not Active”.

With `C[C@@H]1O[C@@H](O[C@@H]2C=C3CC[C@@H]4[C@H](CC[C@]5(C)[C@@H](c6ccc(=O)oc6)CC[C@]45O)[C@@]3(C)CC2)[C@H](O)[C@H](O)[C@H]1O` [PROSCILLARIDIN] the IC50 [1] was “Not Active”, the IC50 [2] was “Not Active” and the IC50 (Melanocortin receptor 4) was “Not Active”. The IC50 ([3]; cho-k1) was “Not Active”, the IC50 [4] was “Not Active” and the Ki [4] was “Not Active”.

For `CN(C)[C@@H]1C(O)=C(C(N)=O)C(=O)[C@@]2(O)C(O)=C3C(=O)c4c(O)ccc(Cl)c4[C@@](C)(O)[C@H]3C[C@@H]12` [CHLORTETRACYCLINE], the IC50 [1] was “Not Active”, the IC50 [2] was “Not Active” and the IC50 (Melanocortin receptor 4) was “Not Active”. For the same compound, the IC50 ([3]; cho-k1) was “Not Active”, the IC50 [4] was “Not Active” and the Ki [4] was “Not Active”.

With `Nc1ccn([C@@H]2O[C@H](CO)[C@@H](O)[C@@H]2O)c(=O)n1` [CYTARABINE] the IC50 [1] was “Not Active”, the IC50 [2] was “Not Active” and the IC50 (Melanocortin receptor 4) was “Not Active”. The IC50 ([3]; cho-k1) was “Not Active”, the IC50 [4] was “Not Active” and the Ki [4] was “Not Active”.

For `CC(C)c1cccc(C(C)C)c1O` [PROPOFOL], the IC50 [1] was “Not Active”, the IC50 [2] was “Not Active” and the IC50 (Melanocortin receptor 4) was “Not Active”. For the same compound, the IC50 ([3]; cho-k1) was “Not Active”, the IC50 [4] was “Not Active” and the Ki [4] was “Not Active”.

From ChEMBL document CHEMBL1909046, “DrugMatrix in vitro pharmacology data”
